Reference: US20220275371A1, “USE OF RAB7 GTPASE (RAB7) INHIBITORS IN ENHANCING PERMEABILITY OF THE BLOOD BRAIN BARRIER (BBB)” (Children's Medical Center Corporation, priority 2019, published 2022)
Structures can show the parent of a compound that is named as a salt.

What was measured:
Type in all cases: cell-based, human
[1] = tested on: brain endothelial cells; experiment: TdTom-Br-EV uptake by brain endothelial cells with endocytosis inhibitors (flow cytometry); settings: 30 min pretreatment: chlorpromazine 20 μM, ML141 100 μM, EIPA 100 μM, cytochalasin D 500 nM, filipin III 10 μM; 3 hours with EVs
Text: The mechanistic details of Br-EV transport was further explored through brain endothelial cells by focusing on the three major steps of transcytosis: 1) endocytosis through the apical (luminal) membrane of brain endothelial cells, 2) transfer through the endocytic pathway, and 3) release into the extracellular environment from the basolateral (abluminal) membrane. To evaluate the mechanism(s) of uptake, brain endothelial cells were pretreated with chemical inhibitors of the different endocytosis pathways and measured the uptake of TdTom-Br-EVs via flow cytometry.
To evaluate the uptake of EVs by brain ECs, astrocytes and pericytes, cells grown to confluence in 96-well plates were incubated with 2×10^9 particle/well of tdTomato P- and Br-EVs. After 2 hours of incubation, cells were washed for 3 times and were fixed for imaging. Images from four different fields were taken using a Zeiss Fluorescent microscope and the level of fluorescence intensity was analyzed using the ImageJ software. To eliminate the confounding effect of cell size on the uptake level, fluorescent intensity for tdTom-EVs was measured per unit of cell surface area. For endocytosis inhibition studies, brain ECs cultured in 12-well plates were treated with chlorpromazine hydrochloride (Millipore Sigma, Cat #C8138, 20 μM), ML141 (100 μM, Millipore Sigma, Cat #217708), 5-(N-Ethyl-N-isopropyl) amiloride (EIPA) (100 μM, Tocris, Cat #3378), cytochalasin D (500 nM, Tocris, Cat #1233), and filipin III (10 μM, Millipore Sigma, Cat #F4767) for 30 minutes prior to addition of TdTom-Br-EVs (10^10 particle/well). Following 3 hours of incubation with EVs, cells were washed and EV uptake was measured by flow cytometry using a BD FACSCalibur flow cytometer (BD Biosciences, San Jose, Calif.).

[2] = tested on: astrocytes; experiment: TdTom-EV uptake by astrocytes with endocytosis inhibitors (flow cytometry); settings: 30 min pretreatment: chlorpromazine 20 μM, EIPA 50 μM, filipin III 10 μM, ML141 100 μM, CAS 1177865-17-6 10 μM; 3 hours with EVs
Text: To elucidate the mechanisms underlying the uptake of breast cancer-derived EVs by astrocytes, the possibility of the involvement of specific endocytosis mechanism(s) in this uptake was explored. Endocytic pathways such as macropinocytosis, clathrin-dependent and caveolin-dependent endocytosis have been commonly reported to be involved in the uptake of EVs by different cell types^16.
Next, the role of clathrin-caveolin-independent pathways in EV uptake was explored, focusing on rac1 and Cdc42, two major players in this process^17.
To evaluate the uptake of EVs by astrocytes for endocytosis inhibition studies, astrocytes were treated with chlorpromazine hydrochloride (Millipore Sigma, Cat #C8138, 20 μM), 5-(N-Ethyl-N-isopropyl) amiloride (EIPA) (50 μM, Tocris, Cat #3378), and filipin III (10 μM, Millipore Sigma, Cat #F4767), CDC42/Rac1 inhibitor, ML141 (100 μM, Millipore Sigma, Cat #217708), and rac1 inhibitor, CAS 1177865-17-6 (10 μM, Millipore Sigma, Cat #553502) for 30 min.

[3] = tested on: brain endothelial monolayer; experiment: Static Transwell BBB model, transport of Gaussia luciferase-labeled Br-EVs; settings: 30 min pretreatment, then Br-EVs 2 hours at 37° C.
Procedure: To verify that the source of the detected signal in the abluminal chamber was the luciferase associated with intact EVs as opposed to free luciferase, the media from the lower chamber was ultracentrifuged on an iodixanol OPTIPREP™ density gradient. As a positive control, Gaussia luciferase-labeled Br-EVs were added directly to the top of a gradient for ultracentrifugation.
To evaluate the effect of temperature, filters were incubated at either 4° C. or 37° C. To evaluate the effect of endocytosis, filters were pretreated with Dynasore hydrate (Millipore Sigma, Cat #D7693) for 30 minutes prior to adding the EVs and then incubated at 37° C. The media from the lower chamber was collected after 2 hours and luminescence intensity was measured as described before. […] After 4 hours of ultracentrifugation, different density fractions were isolated and luminescence intensity was measured for each fraction. […] After 2 hours of incubation, the permeability of the filters to 10 KDa ALEXA FLUOR™ 647 Dextran and 70 KDa FITC-dextran was measured as described above.

| abluminal signal of Br-EV transport [3] | SMILES | uptake of Br-EVs by brain endothelial cells [1] | uptake of breast cancer-derived EVs by astrocytes [2] |
| --- | --- | --- | --- |
| – | COc1ccc(C2=NN(c3ccc(S(N)(=O)=O)cc3)C(c3ccccc3)C2)cc1 (centres unmarked) [ML141] | significantly decreased | significantly decreased |
| – | CCN(CC)CCCC(C)Nc1nc(C)cc(Nc2ccc3nc(C)cc(N)c3c2)n1.Cl.Cl.Cl (centres unmarked) [CAS 1177865-17-6] | – | no effect |
| – | CCCCC[C@@H](O)[C@H]1C(=O)O[C@H](C)[C@@H](O)/C=C/C=C/C=C/C=C/C=C(\C)[C@@H](O)C[C@H](O)C[C@H](O)C[C@H](O)C[C@H](O)C[C@H](O)C[C@@H]1O [Filipin, filipin III] | no effect | did not affect |
| – | CCN(c1nc(N)c(C(=O)N=C(N)N)nc1Cl)C(C)C [EIPA, 5-(N-Ethyl-N-isopropyl) amiloride] | significant decrease | did not affect |
| – | CN(C)CCCN1c2ccccc2Sc2ccc(Cl)cc21 [chlorpromazine, chlorpromazine hydrochloride] | significantly decreased | did not affect |
| dose-dependent decrease | O=C(N/N=C/c1ccc(O)c(O)c1)c1cc2ccccc2cc1O [Dynasore] | – | – |
| – | C=C1[C@@H](C)[C@H]2[C@H](Cc3ccccc3)NC(=O)[C@]23[C@H](OC(C)=O)/C=C/[C@@](C)(O)C(=O)[C@@H](C)C/C=C/[C@H]3[C@@H]1O [cytochalasin D] | significant decrease | – |
